Assay results as given in patent publication US11103458B2, “Stimulant abuse-deterrent compositions” (4P-Pharma, priority 2015, dated 2021).
Values joined by “and” are separate entries in the source; they are usually repeats but may differ in a detail not shown here. Equal entries are not always repeated. “Also recorded” adds a separate entry of the source. Structures can show the parent of a compound that is named as a salt. Where two headings read alike, the source gives them in different places. Marks after values point to notes of the source that are not given here.

Experiments:
Male C57BI mice = assay: Apomorphine mediated inhibition of RITALIN®-induced hyperactivity in activity box (pilot study, Example 5); type: in vivo; details: for locomotion after apomorphine alone: given at 5 mg/kg, 5 mg/kg
Description: Male mice C57BI weighing about 22 g were used in the study.
Male C57BI mice weighing about 22 g were used in the study.
Mice were administered saline solutions of the two actives as follows:
Methylphenidate was dissolved in saline 0.9% to a concentration of 0.5 mg/ml,
Both compounds' solutions were administered at dose volume of […].
Animals' motor locomotion in four groups (1-4 M) was assessed in the activity box. Animals were placed in the activity box and several parameters were observed including movement time, distance, V-plan entries, margin vs. center time, and other parameters. Groups 1-3 M were monitored for 30 minutes each, during which all parameters were assessed at 2 minutes intervals. In the 4 M group, animals were monitored for 60 minutes with 2 minutes assessment intervals. The assessment in the activity box was done in total darkness (red light was used for illumination). The main parameters that were calculated in this study were the move time, total distance and vertical plan entry. The observation for groups 1-3 M were made during 30 minutes with 2 minutes calculation intervals of each parameter. In the fourth group (4 M) the observations were extended for 60 minutes with 2 minutes calculation intervals

dogs [1] = assay: Behavior observation: activity levels and clinical signs in dogs (Example 8); details: for video observation: behavior associated to hyperactivity: first 60-100 min
Description: (§1) Six groups comprising six dogs were assigned for this Example. Methylphenidate (MPH) was used as the model inducer. […] Behavioral observation was performed during 6 hours following test items administration and blood samples were taken on 4 dogs per group at 0.25, 0.5, 1, 1.5, 3, 4 and 6 hours post-administration for pharmacokinetic (PK) analysis.
Animals: Mixed breed dogs (5 Males+7 females/12/3 to 5 years/10.5 to 18.5 kg, from SPM Biocameltec) were used in the studies outlined in this example.
Administration of the test items: Each Test Item was administrated to 6 dogs per group. The administration was performed PO or IV according to group allocation in Table 3. The study was performed in 3 cycles and a period of wash-out of at least 10 days was respected between each cycle.
Behavior observation: The animals were observed every 10 minutes during the first 2 hours post administration, and every 20 minutes thereafter, for 6 hours. Observations included respiratory, circulatory, autonomic and central nervous systems, somatomotor activity and behavior pattern (e.g. sedation, respiration rate, changes in mentation, gait, and the like).

[2] = PK analysis of Methylphenidate and Apomorphine in dogs' plasma (Example 8); details: for change in PK profile on co-administration: t-test: no statistical significance
Description: as §1
Blood Collection and PK analysis: For blood collection, a 5 ml syringe was used and blood sampling was directly collected at the jugular vein. Blood samples were collected in K3-EDTA tubes at the following time points: 0.25, 0.5, 1, 1.5, 3, 4 and 6 hours post-administration (7 samples). At each time point, 6 ml of blood was collected for 4 drug-treated dogs. Plasma samples were analyzed using LC-MS/MS and PK analysis was performed using the PK Solutions Version 2.0 program.

mice = assay: Apomorphine blocking of RITALIN®-induced hyperactivity at human equivalent dosing (second study, Example 6); type: in vivo; details: mice (n=4)
C57bl/6J male mice = assay: Open Field Test (OFT, activity box) with Methylphenidate, Apomorphine and their combination (Example 7); type: in vivo; details: for Center Time / Distance / Rearing Time / Velocity: Day 1, group average; for effect on Methylphenidate-increased distance travelled and velocity: Methylphenidate 5 mg/kg, dose dependent
Description: Eight groups comprising eight or nine C57bl/6J male mice were assigned for this study. Methylphenidate (MPH) was used as the model inducer. […] Spontaneous activity in Open Field Test (OFT) was performed.
Each Test Item and vehicle formulation was administrated to 8/9 mice per group. The administration was performed PO or IP according to group allocation in Table 1.
The open field test (OFT) is a commonly used qualitative and quantitative measure of general locomotor activity and willingness to explore in rodents. Open Field test (OFT) was performed according to Pharmaseed SOP No. 113: “Open Field for Mice Testing”. OFT was performed 15 or 30 min after test item IP or PO administration, respectively.
Fifteen minutes after test item/vehicle administration, mice were placed at the center of an open field box (43×43×40 cm) approximately at the same time of the day. On each side of the open field box, two frames placed at 2 and 5 cm height with 16 photocell beams per side ensured movement detection. The computer defined grid lines that divided the open field into two compartments: margin and center. Several variables were recorded during a 15 minute session of spontaneous activity including: • Indices of motor exploratory activity: distance travelled, moving time, and velocity • Indices of habituation: distance travelled during the last 5-min period in percent of the first+last 5-min periods. • Indices of anxiety: percentage of distance travelled and time spent in the central zone of the open-field. • Curiosity activity: rearing episodes and time Open Field Test (Activity Box)
OFT was performed 15 or 30 min after test item IP or PO administration, respectively. The parameters measured were distance and velocity as indicators of general motility, time spent in center as an indicator for anxiety and rearing time as indicator of the animal's curiosity.

dogs [3] = details: general statement, not this study, cited from earlier work
dogs [4] = assay: Apomorphine-induced emesis in dogs (Example 8); type: in vivo; details: for apomorphine-induced emesis: apomorphine IV 0.15 mg/kg, alone (group 3) or with MPH 1.7 mg/kg (group 5)
Excerpt: Methylphenidate (MPH) was used as the model inducer.

## COC(=O)C(c1ccccc1)C1CCCCN1 (centres unmarked) [Methylphenidate, methylphenidate HCl]
Male C57BI mice; RITALIN® 5 mg/kg, mice, activity box
  motor activity (move time and distance): induced hyperactivity
Male C57BI mice; RITALIN® 8 mg/kg, mice, activity box, HCl, 8 mg/kg
  motor activity (move time and distance covered): induced hyperactivity
Male C57BI mice; RITALIN® induced group, 30 minutes observation
  change of move time and distance over time: no significant change over time
Dogs [1]; MPH IV 1.7 mg/kg (group 1), dogs, notably during the first 60-100 min, HCl, 1.7 mg/kg
  activity levels: caused increased activity levels; also recorded: induced increased activity levels
Dogs [1]; MPH IV 1.7 mg/kg (group 1), dogs, notably during the first 60-100 min, listed as MPH, HCl, 1.7 mg/kg
  activity levels: significantly increased dog activity levels
Dogs [1]; MPH IV 1.7 mg/kg (group 1), at least the 30 first minutes, up to 110 minutes in one dog
  time until which clinical signs were observed post administration: 50 to 70 min
Dogs [1]; Methylphenidate PO 0.3 mg/kg (group 2), dogs, score corresponding to normal dogs
  activity levels: did not induce significant modification of activity levels
Dogs [1]; group 1 (MPH IV 1.7 mg/kg)
  video observation: behavior associated to hyperactivity: constant barking, jumping, walking/circling and a very dynamic state
[2]; Methylphenidate co-administered with Apomorphine, dogs
  change in PK profile on co-administration: somewhat higher values
[2]; Methylphenidate, dogs
  effect of co-administration of Apomorphine on bioavailability or any other PK parameters: not affected
[2]; Methylphenidate, dogs, PO 0.3 mg/kg vs IV 1.7 mg/kg
  bioavailability: comparable to values published previously in the literature
mice; RITALIN® 8.25 mg/Kg
  animals' activity post RITALIN® administration: drastic increase in the animals' activity
C57bl/6J male mice; MPH 5 mg/kg IP (2M)
  Center Time: 89.8 s
  Distance: 3147.1 cm
  Rearing Time: 114.3 s
  Velocity: 4.3 cm/s
C57bl/6J male mice; MPH 5 mg/kg PO (3M)
  Center Time: 88.2 s
  Rearing Time: 104.5 s
  Velocity: 3.4 cm/s
C57bl/6J male mice; MPH 5 mg/kg PO (3M), p < 0.05 vs. 2M
  Distance: 2198.4* cm
C57bl/6J male mice; Methylphenidate 5 mg/kg IP (2M), Day 1, OFT, HCl
  distance travelled and velocity compared to Vehicle-treated controls (1M): significantly increased; also recorded: caused elevation in locomotor activity

## CN1CCc2cccc3c2[C@H]1Cc1ccc(O)c(O)c1-3 [Apomorphine, apomorphine]
Male C57BI mice; mice, activity box
  locomotion after apomorphine alone: caused a sudden ataxia in animals, with nearly still locomotion
Male C57BI mice; mice, activity box, listed as apomorphine
  locomotion after apomorphine alone: induces hypoactivity and nearly ataxic behavior
Male C57BI mice; apomorphine injected 5 minutes after RITALIN®, apomorphine 5 mg/kg, RITALIN® 8 mg/kg
  effect on RITALIN®-induced hyperactivity: totally abolished the effect of RITALIN®; also recorded: total dominance of the effect induced by apomorphine
Male C57BI mice; apomorphine, mice, activity box
  entering the vertical plan: abolished
Dogs [1]; apomorphine administered concomitantly with MPH (group 5), IV
  effect on MPH-induced clinical signs: abolished these MPH-induced clinical signs
Dogs [1]; combination with Apomorphine 0.15 mg/kg IV (group 5), MPH 1.7 mg/kg IV, dogs
  effect on MPH-induced increase in activity: diminished the observed increases in activity; also recorded: significantly reduced the observed increase in activity; also recorded: significantly reduced these effects
Dogs [1]; group 5 (apomorphine 0.15 mg/kg + MPH 1.7 mg/kg IV)
  video observation: behavior associated to hyperactivity: only with circling episodes
[2]; Apomorphine IV 0.15 mg/kg and PO 0.027 mg/kg, dogs' plasma, especially following oral administration
  plasma levels: low levels
[2]; Apomorphine co-administered with Methylphenidate, dogs
  change in PK profile on co-administration: somewhat lower values
mice; apomorphine 1.23 mg/Kg with RITALIN® 8.25 mg/Kg
  animals movement / RITALIN®-induced hyperactivity after apomorphine injection: dramatically decreased the animals movement
Dogs [3]; IV
  dose to induce vomiting in dogs: greater than 0.02 mg/kg
Dogs [3]; PO
  dose to induce vomiting in dogs: greater than 4 mg/kg
Dogs [3]; SC
  dose to induce vomiting in dogs: greater than 0.3 mg/kg
Dogs [4]; apomorphine IV 0.15 mg/kg (group 3 and group 5), dogs
  time to emesis post administration: 1 to 2 min
Dogs [4]; dogs
  apomorphine-induced emesis: inducing emesis
Dogs [4]; dogs, listed as apomorphine
  apomorphine-induced emesis: observed in all treated dogs
Dogs [4]; apomorphine PO 0.027 mg/kg (group 4), dogs
  induction of emesis: did not induce emesis
Dogs [4]; group #3 Apo IV 0.15 mg/kg, Dog 1 to Dog 6, listed as Apo, 0.15 mg/kg
  Recorded time for observed emesis following apomorphine administration, individual dogs: 1.0 minutes and 1.5 minutes and 1.1 minutes (2×) and 0.8 minutes and 0.9 minutes
Dogs [4]; group #3 Apo IV 0.15 mg/kg, mean of 6 dogs
  Recorded time for observed emesis following apomorphine administration, Mean: 1.1 min
C57bl/6J male mice; Apomorphine 0.9 mg/kg IP in combination with Methylphenidate (7M), Day 1
  rearing time compared to Methylphenidate IP treated group (2M): significantly reduced rearing time
C57bl/6J male mice; Apomorphine 0.05-0.9 mg/kg IP with Methylphenidate 5 mg/kg
  antagonism of Methylphenidate-caused elevation in locomotor activity: antagonized this effect in a dose-dependent manner
C57bl/6J male mice; combination with Apomorphine 0.9 mg/kg IP (7M), Day 1
  effect on Methylphenidate-increased distance travelled and velocity: significantly reduced
C57bl/6J male mice; combination with Apomorphine 0.3 mk/kg IP (6M), Day 1
  effect on Methylphenidate-increased distance travelled and velocity: significantly reduced
